Experimental data taken from ChEMBL document CHEMBL1201862, “PubChem BioAssay data set” (2004).
The source made the active and inactive calls.

How the values were obtained:
Cytochrome P450 1A2 = molecular target: T1, Cytochrome P450 1A2 (Homo sapiens, UniProt P05177);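 note: PubChem cytochrome P450 panel assay, CYP1A2 panel member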
T1 sequence (P05177 whole entry): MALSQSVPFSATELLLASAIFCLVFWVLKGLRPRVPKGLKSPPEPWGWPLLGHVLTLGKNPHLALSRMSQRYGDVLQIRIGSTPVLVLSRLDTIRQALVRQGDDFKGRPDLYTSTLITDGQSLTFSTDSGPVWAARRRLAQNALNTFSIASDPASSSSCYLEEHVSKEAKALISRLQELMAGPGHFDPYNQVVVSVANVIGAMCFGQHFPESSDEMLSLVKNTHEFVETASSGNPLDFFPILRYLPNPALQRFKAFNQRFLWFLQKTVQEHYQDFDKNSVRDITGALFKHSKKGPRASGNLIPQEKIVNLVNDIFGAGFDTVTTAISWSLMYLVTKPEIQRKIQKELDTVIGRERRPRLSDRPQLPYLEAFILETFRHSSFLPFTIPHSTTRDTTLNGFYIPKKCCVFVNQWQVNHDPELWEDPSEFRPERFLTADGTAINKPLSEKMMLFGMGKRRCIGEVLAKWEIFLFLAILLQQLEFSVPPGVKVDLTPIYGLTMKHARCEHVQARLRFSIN

Cytochrome P450 3A4 = Cytochrome P450 3A4 (Homo sapiens, UniProt P08684);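 note: CYP3A4 tested as one member of a cytochrome P450 panel screen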
Cytochrome P450 2D6 = Cytochrome P450 2D6 (Homo sapiens, UniProt P10635);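 note: CYP2D6 member of a cytochrome P450 panel assay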
Cytochrome P450 2C19 = Cytochrome P450 2C19 (Homo sapiens, UniProt P33261); experiment: Cytochrome panel assay with activity outcomes. Panel member name: p450-cyp2c19 Compounds with AC50 equal or less than 10 uM are considered active; type: functional
[1] = molecular target: T2, Replicative DNA helicase DnaB (Mycobacterium tuberculosis, UniProt P9WMR3); experiment: DnaB intein splicing inhibitors, dose response, biochemical, cell-free fluorescence (AID 449749); type: functional
T2 sequence (P9WMR3 whole entry): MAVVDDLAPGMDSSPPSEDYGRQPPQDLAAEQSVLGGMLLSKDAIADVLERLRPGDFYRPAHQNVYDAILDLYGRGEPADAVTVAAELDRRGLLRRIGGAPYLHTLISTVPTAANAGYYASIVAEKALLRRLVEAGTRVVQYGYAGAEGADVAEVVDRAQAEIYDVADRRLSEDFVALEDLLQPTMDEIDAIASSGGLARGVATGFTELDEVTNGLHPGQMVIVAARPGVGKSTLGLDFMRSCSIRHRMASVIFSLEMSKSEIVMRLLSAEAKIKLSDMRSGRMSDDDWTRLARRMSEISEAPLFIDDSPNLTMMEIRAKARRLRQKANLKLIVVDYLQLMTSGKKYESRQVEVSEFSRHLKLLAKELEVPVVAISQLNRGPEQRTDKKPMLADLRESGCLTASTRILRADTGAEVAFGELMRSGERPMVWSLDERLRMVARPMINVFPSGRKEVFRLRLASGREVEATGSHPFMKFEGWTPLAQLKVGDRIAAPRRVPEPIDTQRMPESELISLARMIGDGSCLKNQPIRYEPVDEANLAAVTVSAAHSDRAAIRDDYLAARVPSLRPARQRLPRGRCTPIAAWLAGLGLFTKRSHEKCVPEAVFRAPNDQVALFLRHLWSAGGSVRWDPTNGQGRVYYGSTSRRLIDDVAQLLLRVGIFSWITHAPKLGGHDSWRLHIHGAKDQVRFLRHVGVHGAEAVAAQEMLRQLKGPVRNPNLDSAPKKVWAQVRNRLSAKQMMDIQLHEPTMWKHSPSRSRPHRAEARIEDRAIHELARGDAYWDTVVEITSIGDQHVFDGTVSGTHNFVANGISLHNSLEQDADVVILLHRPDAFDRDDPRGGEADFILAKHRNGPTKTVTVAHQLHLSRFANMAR

Protein RecA = molecular target: T3, Protein RecA (Mycobacterium tuberculosis, UniProt P9WHJ3); experiment: Fluorescence Cell-Free Homogeneous Dose Retest to Identify Inhibitors of RecA-Intein Splicing Activity. [Related pubchem assays (depositor defined):AID2097, AID2223, AID489010, AID492950]; type: functional
T3 sequence (P9WHJ3 whole entry): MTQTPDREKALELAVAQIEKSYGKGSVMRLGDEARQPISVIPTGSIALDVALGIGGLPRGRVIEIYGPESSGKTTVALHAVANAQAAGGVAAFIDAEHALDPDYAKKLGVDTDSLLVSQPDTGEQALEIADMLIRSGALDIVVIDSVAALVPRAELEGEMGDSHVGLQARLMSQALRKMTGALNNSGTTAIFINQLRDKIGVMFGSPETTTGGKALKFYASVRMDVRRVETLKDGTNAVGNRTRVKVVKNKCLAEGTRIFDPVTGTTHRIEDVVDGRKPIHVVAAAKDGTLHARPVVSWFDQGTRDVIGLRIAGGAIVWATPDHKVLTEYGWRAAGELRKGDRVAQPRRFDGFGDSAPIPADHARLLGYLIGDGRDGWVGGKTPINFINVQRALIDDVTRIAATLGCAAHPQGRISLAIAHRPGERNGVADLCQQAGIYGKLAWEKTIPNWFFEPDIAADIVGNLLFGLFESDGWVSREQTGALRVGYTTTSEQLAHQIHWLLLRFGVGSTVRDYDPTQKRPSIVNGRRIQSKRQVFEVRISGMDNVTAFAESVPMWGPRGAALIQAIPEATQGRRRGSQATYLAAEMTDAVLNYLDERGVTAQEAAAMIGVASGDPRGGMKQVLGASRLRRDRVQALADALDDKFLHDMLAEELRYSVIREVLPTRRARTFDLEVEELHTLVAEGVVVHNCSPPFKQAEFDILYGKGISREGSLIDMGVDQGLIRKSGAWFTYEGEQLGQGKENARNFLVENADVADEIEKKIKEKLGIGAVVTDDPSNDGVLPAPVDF

[2] = molecular target: T4, Corticotropin-releasing factor receptor 2/Corticotropin-releasing factor-binding protein (Homo sapiens, UniProt P24387+Q13324); experiment: activators of CRF receptor 2 with binding protein – uHTS hits, confirmation (AID 602473); type: functional; conditions: read-out: EC50_Mean
T4 sequence (Q13324 whole entry): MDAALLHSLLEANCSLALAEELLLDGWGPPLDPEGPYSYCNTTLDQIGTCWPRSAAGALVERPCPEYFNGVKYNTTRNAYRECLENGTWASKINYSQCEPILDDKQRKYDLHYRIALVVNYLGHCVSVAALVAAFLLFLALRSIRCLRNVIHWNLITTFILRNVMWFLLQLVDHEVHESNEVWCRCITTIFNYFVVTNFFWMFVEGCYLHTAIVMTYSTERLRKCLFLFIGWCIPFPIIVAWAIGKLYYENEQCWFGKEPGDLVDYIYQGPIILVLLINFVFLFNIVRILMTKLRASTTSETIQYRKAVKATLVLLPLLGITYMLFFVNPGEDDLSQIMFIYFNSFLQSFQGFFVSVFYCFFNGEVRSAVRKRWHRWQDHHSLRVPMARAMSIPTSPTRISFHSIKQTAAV
T4 sequence (P24387 whole entry): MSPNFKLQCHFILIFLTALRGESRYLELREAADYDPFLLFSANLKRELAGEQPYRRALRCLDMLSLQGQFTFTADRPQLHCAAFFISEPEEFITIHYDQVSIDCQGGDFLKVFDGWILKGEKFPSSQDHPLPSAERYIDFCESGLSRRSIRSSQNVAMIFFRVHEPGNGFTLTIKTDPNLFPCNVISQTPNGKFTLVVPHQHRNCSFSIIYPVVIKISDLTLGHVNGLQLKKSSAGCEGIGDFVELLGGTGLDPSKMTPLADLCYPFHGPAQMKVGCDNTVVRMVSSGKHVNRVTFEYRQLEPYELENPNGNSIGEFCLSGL

[3] = Trypanosoma cruzi growth suppression in host cells – NIH3T3 host cells, beta-gal luminescence, confirmation (AID 2044); type: functional, cell-based;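 note: intracellular parasites grown in NIH/3T3 mouse fibroblasts as host cells; luminescent beta-galactosidase reporter signal from transgenic T. cruzi replicating inside host cells; inhibitors lower the luminescence signal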
[4] = NIH3T3 cell viability loss – ATP luminescence, mouse fibroblasts, counter-screen, dose response (AID 2010); type: functional, cell-based;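 note: cells exposed to compound for about 90 hours before reading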

Cytochrome P450 2D6, sequence (P10635 whole entry): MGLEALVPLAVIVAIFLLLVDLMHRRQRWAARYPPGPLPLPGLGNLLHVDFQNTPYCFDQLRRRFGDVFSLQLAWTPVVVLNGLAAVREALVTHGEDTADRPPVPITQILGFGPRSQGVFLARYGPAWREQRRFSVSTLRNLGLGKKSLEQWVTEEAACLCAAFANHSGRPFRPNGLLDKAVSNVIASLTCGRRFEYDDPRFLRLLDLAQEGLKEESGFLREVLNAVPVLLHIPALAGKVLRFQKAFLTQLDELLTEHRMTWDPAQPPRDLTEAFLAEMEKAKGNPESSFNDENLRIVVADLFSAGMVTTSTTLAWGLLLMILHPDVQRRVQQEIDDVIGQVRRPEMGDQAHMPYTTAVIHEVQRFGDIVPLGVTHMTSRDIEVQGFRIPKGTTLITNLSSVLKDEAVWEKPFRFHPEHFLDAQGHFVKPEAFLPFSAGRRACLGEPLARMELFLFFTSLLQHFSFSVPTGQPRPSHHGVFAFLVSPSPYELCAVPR
Cytochrome P450 3A4, sequence (P08684 whole entry): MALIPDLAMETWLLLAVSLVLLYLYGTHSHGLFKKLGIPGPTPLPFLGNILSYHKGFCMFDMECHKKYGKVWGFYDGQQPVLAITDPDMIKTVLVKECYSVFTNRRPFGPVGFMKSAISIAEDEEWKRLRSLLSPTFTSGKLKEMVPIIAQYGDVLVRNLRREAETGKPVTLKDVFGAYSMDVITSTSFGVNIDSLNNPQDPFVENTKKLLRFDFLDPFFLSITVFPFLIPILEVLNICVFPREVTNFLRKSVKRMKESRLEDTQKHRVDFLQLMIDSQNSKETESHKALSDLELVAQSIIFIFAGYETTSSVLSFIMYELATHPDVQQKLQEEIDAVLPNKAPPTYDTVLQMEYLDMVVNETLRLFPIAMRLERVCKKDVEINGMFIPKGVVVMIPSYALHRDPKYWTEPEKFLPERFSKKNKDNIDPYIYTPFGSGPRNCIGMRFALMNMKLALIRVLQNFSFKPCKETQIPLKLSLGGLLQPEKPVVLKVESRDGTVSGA
Cytochrome P450 2C19, sequence (P33261 whole entry): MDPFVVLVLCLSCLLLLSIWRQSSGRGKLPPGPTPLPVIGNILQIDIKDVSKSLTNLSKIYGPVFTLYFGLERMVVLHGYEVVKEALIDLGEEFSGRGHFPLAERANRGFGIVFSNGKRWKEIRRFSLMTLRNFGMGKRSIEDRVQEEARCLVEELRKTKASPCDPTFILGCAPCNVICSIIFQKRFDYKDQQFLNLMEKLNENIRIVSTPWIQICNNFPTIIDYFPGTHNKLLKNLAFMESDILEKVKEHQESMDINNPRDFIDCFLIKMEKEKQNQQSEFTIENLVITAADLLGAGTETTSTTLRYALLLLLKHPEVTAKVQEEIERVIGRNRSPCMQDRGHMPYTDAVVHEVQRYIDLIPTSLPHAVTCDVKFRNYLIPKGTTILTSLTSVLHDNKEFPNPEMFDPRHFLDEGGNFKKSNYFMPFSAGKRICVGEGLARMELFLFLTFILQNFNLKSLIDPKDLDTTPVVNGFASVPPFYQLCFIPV

Compound	AC50 (Cytochrome P450 1A2)	AC50 [1]	EC50 (Protein RecA)	further results
NS(=O)(=O)c1cc2c(cc1Cl)N[C@H](Cc1ccccc1)NS2(=O)=O	3.16 µM (inconclusive)	–	–	–
Cc1ccc2nc(Nc3ccccc3O)nc(-c3ccccc3)c2c1	–	–	–	AC50 (Cytochrome P450 3A4): 35.5 µM (inconclusive); AC50 (Cytochrome P450 2D6): 3.55 µM (inconclusive); AC50 (Cytochrome P450 2C19; read-out: AC50): 2.24 µM (inconclusive)
CCCCNC(=O)CCn1c(=S)[nH]c2cc3c(cc2c1=O)OCO3	–	–	–	AC50 (Cytochrome P450 2C19; read-out: AC50): 3.55 µM (inconclusive)
C=CC[C@@H](C(=O)O)c1ccccc1	–	–	–	AC50 (Cytochrome P450 2C19): inconclusive
Cn1cc(-c2nc3cnc(Oc4cccc(Cl)c4)nc3n(C3CC3)c2=O)c2ccccc21	12.6 µM (inconclusive)	–	–	–
CC1(C)[C@@H]2CC[C@]1(C)[C@@H](OC(=O)/C=C\c1ccccc1)C2	–	–	–	AC50 (Cytochrome P450 2C19; read-out: AC50): 0.00398 µM (inconclusive)
COC(=O)[C@@]1(Cc2ccccc2)[C@H]2c3cc(C(=O)N4CCCC4)n(Cc4cccc5ccccc45)c3C[C@H]2CN1C(=O)c1ccccc1	15.8 µM (inconclusive)	–	–	–
CCC(CC)C(=O)Nc1c2c(nn1-c1ccc(OC)cc1)CS(=O)(=O)C2	–	–	–	AC50 (Cytochrome P450 3A4): 25.1 µM (inconclusive); AC50 (Cytochrome P450 2C19; read-out: AC50): 35.5 µM (inconclusive)
Cc1ccc(C(=O)NC(C#N)=C(Cl)Cl)cc1	–	27.1 µM (active)	19.5 µM (active)	–
CN1CCC(n2[nH]c(-c3ccccc3)c(Cc3ccccc3)c2=O)CC1 [BENZPIPERYLON]	1.58 µM (inconclusive)	–	–	AC50 (Cytochrome P450 2D6): 3.16 µM (inconclusive)
O=C(Nc1ccccc1)N1CCCC2(CCN(S(=O)(=O)c3ccccc3)CC2)C1	15.8 µM (inconclusive)	–	–	AC50 (Cytochrome P450 3A4): 5.01 µM (inconclusive); AC50 (Cytochrome P450 2D6): 15.8 µM (inconclusive)
CN1CCN(c2ncc3nc(-c4cccs4)c(=O)n(CCC#N)c3n2)CC1	15.8 µM (inconclusive)	–	–	AC50 (Cytochrome P450 3A4): 31.6 µM (inconclusive)
N#CC1(C#N)CC(C=O)=C(N)C1(C#N)CC(=O)C12CC3CC(CC(C3)C1)C2 (stereo not drawn)	–	> 380 µM (inactive)	10 µM (active)	–
C[C@@H](C(=O)O)c1ccc(C[C@@H]2CCCC2=O)cc1	–	–	–	AC50 (Cytochrome P450 2C19): inconclusive
N#Cc1ccc(CC(=O)c2ccccc2)[nH]c1=O	–	–	–	EC50 [2]: 12.2 µM (active)
CCOC(=O)N1C(=O)[C@](c2ccc(Cl)cc2)(C(C)C)N1C(=O)OCC	–	3.09 µM (active)	3.34 µM (active)	–
Cc1ccc(C2CC(c3cccs3)=NN2C(=O)CSC2=NCCS2)cc1 (stereo not drawn)	–	6.2 µM (active)	6.68 µM (active)	–
CCOc1cc(NC(=O)c2ccccc2[N+](=O)[O-])c(OCC)cc1NC(=O)CC(C)C	–	–	–	AC50 (Cytochrome P450 2C19; read-out: AC50): 0.0112 µM (inconclusive)

Compound	AC50 (Cytochrome P450 1A2)	AC50 [1]	EC50 (Protein RecA)	further results
Cc1nn(-c2ccccc2)c2c1C(c1ccc(F)cc1F)C(C#N)=C(N)O2 (stereo not drawn)	–	7.25 µM (active)	3.5 µM (active)	–
CN1CCN(c2ncc3nc(CCc4ccccc4)c(=O)n(Cc4cccs4)c3n2)CC1	–	–	–	AC50 (Cytochrome P450 3A4): 12.6 µM (inconclusive); AC50 (Cytochrome P450 2D6): 20 µM (inconclusive); AC50 (Cytochrome P450 2C19; read-out: AC50): 39.8 µM (inconclusive)
CCN(CC)C(=O)C1=C(C)N=C(S)NC1c1cn(-c2ccccc2)nc1-c1ccc(Cl)cc1 (stereo not drawn)	28.2 µM (inconclusive)	–	–	AC50 (Cytochrome P450 2C19; read-out: AC50): 17.8 µM (inconclusive)
c1cncc(CNc2ncn[nH]2)c1	–	–	–	AC50 (Cytochrome P450 2C19): inconclusive
CCOc1ccc(CN(C)C(=O)CCl)cc1	–	> 380 µM (inactive)	4.09 µM (active)	–
Cn1c(CN2CCOCC2)nnc1SCc1ccccc1	–	–	–	AC50 (Cytochrome P450 2C19; read-out: AC50): 20 µM (inconclusive)
CC(C)Cn1c(N)c(S(=O)(=O)c2cccs2)c2nc3ccccc3nc21	–	> 380 µM (inactive)	32.9 µM (inconclusive)	–
O=C(Cc1cc(O)n[nH]1)N/N=C/c1ccccc1[N+](=O)[O-]	–	4.19 µM (active)	1.73 µM (active)	–
N#Cc1c(SCC(N)=O)nsc1SCc1ccccc1Cl	4.47 µM (inconclusive)	–	–	AC50 (Cytochrome P450 3A4): 10 µM (inconclusive)
Cc1ccc(C2(c3ccc(C)c(O)c3C)CCN(C)CC2)c(C)c1O	5.01 µM (inconclusive)	–	–	–
COC(=O)c1ccccc1Oc1c(F)c(F)nc(N2CCOCC2)c1F	28.2 µM (inconclusive)	–	–	AC50 (Cytochrome P450 2D6): 35.5 µM (inconclusive)
CCOC(=O)CSCCOc1ccc(C=C2C(=O)NC(=O)NC2=O)cc1OC	–	46.6 µM (active)	> 380 µM (inactive)	–
CC(C)[C@@H]1[C@H]2CC[C@H](C2)[C@H]1N	31.6 µM (inconclusive)	–	–	AC50 (Cytochrome P450 3A4): 15.8 µM (inconclusive)
O=C(Nc1cccc(F)c1)N1CC[C@@]2(CCCN(C(=O)c3ccco3)C2)C1	25.1 µM (inconclusive)	–	–	AC50 (Cytochrome P450 3A4): 10 µM (inconclusive)
Cc1cc(C(=O)CCl)c(C)n1CC1COc2ccccc2O1 (stereo not drawn)	–	21.7 µM (active)	13.5 µM (active)	EC50 [3]: 1.81 µM (active); EC50 [4]: 4.42 µM (active)
COc1ccc(N(C(=O)c2ccco2)S(=O)(=O)c2cccs2)cc1	–	38.1 µM (active)	32.6 µM (active)	–
Cc1ccsc1/C=N/NC(=O)Cc1cc(O)[nH]n1	–	1.68 µM (active)	1.28 µM (active)	–
